Data taken from patent EP4635500A1, “THERAPEUTIC AGENT FOR BACTERIAL INFECTION” (Sumitomo Pharma Co., Ltd., priority 2022, dated 2024).
Converted amounts (≈) assume the structure as drawn. Where two headings read alike, the source gives them in different places.

Legend:
Format in all cases: cell-based
Morganella morganii = test: MIC and MBC, broth microdilution (Example 4, Table 3); conditions: Morganella morganii CDC-57 (NDM-1)
Acinetobacter baumannii = test: as above; conditions: for MBC: Acinetobacter baumannii
Escherichia coli = test: as above; conditions: for MBC: read-out: MBC; for MIC: read-out: MIC
Enterobacter aerogenes = test: as above; conditions: Klebsiella aerogenes
[1] = tested on: Enterobacter cloacae complex; test: as above; conditions: Enterobacter cloacae complex CDC-164 (NMC-A)
Klebsiella pneumoniae = test: as above; conditions: Klebsiella pneumoniae; for MIC: read-out: MIC
Bacteroides spp. = test: MIC, agar dilution, anaerobic bacteria (Example 9, Tables 17, 22); conditions: for MIC: (n)=Compound A µg/mL, 0=Compound A alone antibacterial
[2] = Acinetobacter baumannii CDC-303 (OXA-23, OXA-66)
[3] = ATCCBAA2340, Escherichia coli ATCC BAA-2340 (KPC-3)
[4] = ATCCBAA2469, Escherichia coli ATCC BAA-2469 (NDM-1)
[5] = Escherichia coli NCTC13476 (IMP-1)
[6] = ATCCBAA2344, Klebsiella pneumoniae ATCC BAA-2344 (KPC-2)
[7] = ATCCBAA2470, Klebsiella pneumoniae ATCC BAA-2470 (NDM-1)
[8] = ATCCBAA2524, Klebsiella pneumoniae ATCC BAA-2524 (OXA-48)
[9] = Klebsiella pneumoniae CDC-112 (KPC-3)
[10] = Klebsiella pneumoniae CDC-505 (NDM-1)
[11] = Klebsiella pneumoniae KUB3607 (IMP-1)
[12] = NCTC13440, Klebsiella pneumoniae NCTC13440 (VIM-1)

C[C@@H](O)[C@H]1C(=O)N2C(C(=O)O)=C(S[C@@H]3CN[C@H](C(=O)N(C)C)C3)[C@H](C)[C@H]12 [MEPM, meropenem]
MBC (Morganella morganii): 8 µg/mL (≈ 20.9 µM)
MIC (Morganella morganii): 8 µg/mL (≈ 20.9 µM)
MIC (Acinetobacter baumannii; [2]): 64 µg/mL (≈ 167 µM)
MIC (Acinetobacter baumannii; Acinetobacter baumannii CDC-304 (OXA-66, OXA-72), read-out: MIC): 64 µg/mL (≈ 167 µM)
MBC (Acinetobacter baumannii; [2]): 64 µg/mL (≈ 167 µM)
MBC (Acinetobacter baumannii; Acinetobacter baumannii CDC-304 (OXA-66, OXA-72)): 64 µg/mL (≈ 167 µM)
MBC (Escherichia coli; [3]): 8 µg/mL (≈ 20.9 µM)
MIC (Escherichia coli; [3]): 4 µg/mL (≈ 10.4 µM)
MBC (Escherichia coli; [4]): 32 µg/mL (≈ 83.4 µM)
MIC (Escherichia coli; [4]): 32 µg/mL (≈ 83.4 µM)
MBC (Escherichia coli; [5]): 8 µg/mL (≈ 20.9 µM)
MIC (Escherichia coli; [5]): 4 µg/mL (≈ 10.4 µM)
MBC (Enterobacter aerogenes): 8 µg/mL (≈ 20.9 µM)
MIC (Enterobacter aerogenes): 4 µg/mL (≈ 10.4 µM)
MBC [1]: 32 µg/mL (≈ 83.4 µM)
MIC [1]: 32 µg/mL (≈ 83.4 µM)
MBC (Klebsiella pneumoniae; [6]): 32 µg/mL (≈ 83.4 µM)
MIC (Klebsiella pneumoniae; [6]): 16 µg/mL (≈ 41.7 µM)
MBC (Klebsiella pneumoniae; [7]): 32 µg/mL (≈ 83.4 µM)
MIC (Klebsiella pneumoniae; [7]): 32 µg/mL (≈ 83.4 µM)
MBC (Klebsiella pneumoniae; [8]): 4 µg/mL (≈ 10.4 µM)
MIC (Klebsiella pneumoniae; [8]): 1 µg/mL (≈ 2.61 µM)
MBC (Klebsiella pneumoniae; [9]): 32 µg/mL (≈ 83.4 µM)
MIC (Klebsiella pneumoniae; [9]): 32 µg/mL (≈ 83.4 µM)
MBC (Klebsiella pneumoniae; [10]): 64 µg/mL (≈ 167 µM)
MIC (Klebsiella pneumoniae; [10]): 64 µg/mL (≈ 167 µM)
MBC (Klebsiella pneumoniae; [11]): 8 µg/mL (≈ 20.9 µM)
MIC (Klebsiella pneumoniae; [11]): 8 µg/mL (≈ 20.9 µM)
MBC (Klebsiella pneumoniae; [12]): 64 µg/mL (≈ 167 µM)
MIC (Klebsiella pneumoniae; [12]): 16 µg/mL (≈ 41.7 µM)
MIC50 (Bacteroides spp.; Bacteroides spp.): 0.5 µg/mL (≈ 1.3 µM)
MIC90 (Bacteroides spp.; Bacteroides spp.): 4 µg/mL (≈ 10.4 µM)
MIC (Bacteroides spp.; Bacteroides, KUB No. 2982 Bacteroidesfragilis): 0.12 µg/mL (≈ 0.313 µM)
MIC (Bacteroides spp.; Bacteroides, KUB No. 6464 Bacteroides vulgarus): 0.12 µg/mL (≈ 0.313 µM)
MIC (Bacteroides spp.; Bacteroides, KUB No. 6480 Bacteroides thetaioraomicron): 1 µg/mL (≈ 2.61 µM)
MIC (Bacteroides spp.; Bacteroides, KUB No. 6487 Bacteroides thetaiotamicron): 2 µg/mL (≈ 5.22 µM)
MIC50 (Bacteroides spp.; Bacteroides, n=56, combination: Compound A at 4 ug/mL, read-out: MIC50): 0.5 µg/mL
MIC90 (Bacteroides spp.; Bacteroides, n=56, combination: Compound A at 4 ug/mL, read-out: MIC90): 4 µg/mL
MIC (Bacteroides spp.; KUB No. 2977 Bacteroides thetaiotaomicron ATCC 29741): 0.25 µg/mL (≈ 0.652 µM)
MIC (Bacteroides spp.; KUB No. 2983 Bacteroides fragilis): 4 µg/mL (≈ 10.4 µM)
MIC (Bacteroides spp.; KUB No. 2984 Bacteroides thetaiotaomicron): 0.25 µg/mL (≈ 0.652 µM)
MIC (Bacteroides spp.; KUB No. 3003 Bacteroides fragilis ATCC 25285): 0.12 µg/mL (≈ 0.313 µM)
MIC (Bacteroides spp.; KUB No. 3009 Bacteroides ovatus): 1 µg/mL (≈ 2.61 µM)
MIC (Bacteroides spp.; KUB No. 6458 Bacteroides fragilis): 0.5 µg/mL (≈ 1.3 µM)
MIC (Bacteroides spp.; KUB No. 6459 Bacteroides stercoris): 0.25 µg/mL (≈ 0.652 µM)
MIC (Bacteroides spp.; KUB No. 6460 Bacteroides thetaiotaomicron): 2 µg/mL (≈ 5.22 µM)
MIC (Bacteroides spp.; KUB No. 6461 Bacteroides fragilis): 0.5 µg/mL (≈ 1.3 µM)
MIC (Bacteroides spp.; KUB No. 6463 Bacteroides fragilis): 0.12 µg/mL (≈ 0.313 µM)
MIC (Bacteroides spp.; KUB No. 6465 Bacteroides thetaiotaomicron): 0.5 µg/mL (≈ 1.3 µM)
MIC (Bacteroides spp.; KUB No. 6466 Bacteroides fragilis): 4 µg/mL (≈ 10.4 µM)
MIC (Bacteroides spp.; KUB No. 6467 Bacteroides fragilis): 0.12 µg/mL (≈ 0.313 µM)
MIC (Bacteroides spp.; KUB No. 6468 Bacteroides fragilis): 4 µg/mL (≈ 10.4 µM)
MIC (Bacteroides spp.; KUB No. 6469 Bacteroides fragilis): 0.25 µg/mL (≈ 0.652 µM)
MIC (Bacteroides spp.; KUB No. 6470 Bacteroides fragilis): 0.25 µg/mL (≈ 0.652 µM)
MIC (Bacteroides spp.; KUB No. 6471 Bacteroides fragilis): 0.12 µg/mL (≈ 0.313 µM)
MIC (Bacteroides spp.; KUB No. 6472 Bacteroides stercoris): 1 µg/mL (≈ 2.61 µM)
MIC (Bacteroides spp.; KUB No. 6473 Bacteroides fragilis): 0.25 µg/mL (≈ 0.652 µM)
MIC (Bacteroides spp.; KUB No. 6474 Bacteroides fragilis): 1 µg/mL (≈ 2.61 µM)
MIC (Bacteroides spp.; KUB No. 6475 Bacteroides thetaiotaomicron): 2 µg/mL (≈ 5.22 µM)
MIC (Bacteroides spp.; KUB No. 6476 Bacteroides vulgatus): 0.5 µg/mL (≈ 1.3 µM)
MIC (Bacteroides spp.; KUB No. 6477 Bacteroides fragilis): 4 µg/mL (≈ 10.4 µM)
MIC (Bacteroides spp.; KUB No. 6478 Bacteroides fragilis): 0.12 µg/mL (≈ 0.313 µM)
MIC (Bacteroides spp.; KUB No. 6481 Bacteroides fragilis): 0.12 µg/mL (≈ 0.313 µM)
MIC (Bacteroides spp.; KUB No. 6483 Bacteroides fragilis): 0.12 µg/mL (≈ 0.313 µM)
MIC (Bacteroides spp.; KUB No. 6484 Bacteroides fragilis): 0.25 µg/mL (≈ 0.652 µM)
MIC (Bacteroides spp.; KUB No. 6485 Bacteroides vulgatus): 8 µg/mL (≈ 20.9 µM)
MIC (Bacteroides spp.; KUB No. 6486 Bacteroides fragilis): 0.12 µg/mL (≈ 0.313 µM)
MIC (Bacteroides spp.; KUB No. 6490 Bacteroides fragilis): 64 µg/mL (≈ 167 µM)
MIC (Bacteroides spp.; KUB No. 6491 Bacteroides fragilis): 16 µg/mL (≈ 41.7 µM)
MIC (Bacteroides spp.; KUB No. 6493 Bacteroides thetaiotaomicron): 0.25 µg/mL (≈ 0.652 µM)
MIC (Bacteroides spp.; KUB No. 6496 Bacteroides fragilis): 0.12 µg/mL (≈ 0.313 µM)
MIC (Bacteroides spp.; KUB No. 6497 Bacteroides vulgatus): 0.12 µg/mL (≈ 0.313 µM)
MIC (Bacteroides spp.; KUB No. 6502 Bacteroides fragilis): 16 µg/mL (≈ 41.7 µM)
